In patent US7683097B2, “Topoisomerase inhibitors” (Propharmacon Inc., priority 2004, dated 2010):
Like-named read-outs stand apart in the source and are kept apart here.

What was measured:
HL-60 = assay: Cell proliferation assay, Leukemia HL-60; type: cell-based; conditions: Homo sapiens, read-out: GI50 or IC50, Leukemia HL-60
Procedure: (§1) The compounds listed in Table III were prepared using the procedures outlined in the above Examples.

HL60-MX1 (MDR) = assay: Cell proliferation assay, Leukemia HL60-MX1 (MDR); type: cell-based; conditions: read-out: GI50 or IC50, Leukemia HL60-MX1 (MDR)
Procedure: as §1

NCI-H460 [1] = assay: Cell proliferation assay, NSC Lung Cancer NCI-H460; type: cell-based; conditions: Homo sapiens, read-out: GI50 or IC50, NSC Lung Cancer NCI-H460
Procedure: as §1

H69-AR (MDR) = assay: Cell proliferation assay, SC Lung Cancer H69-AR (MDR); type: cell-based; conditions: Homo sapiens, H69AR; read-out: GI50 or IC50, SC Lung Cancer H69-AR (MDR)
Procedure: as §1

HCT-15 = assay: Cell proliferation assay, Colon Cancer HCT-15; type: cell-based; conditions: Homo sapiens, read-out: GI50 or IC50, Colon Cancer HCT-15
Procedure: as §1

SF-268 = assay: Cell proliferation assay, CNS Cancer SF-268; type: cell-based; conditions: Homo sapiens, read-out: GI50 or IC50, CNS Cancer SF-268
Procedure: as §1

SK-MEL-2 = assay: Cell proliferation assay, Melanoma SK-MEL-2; type: cell-based; conditions: Homo sapiens, read-out: GI50 or IC50, Melanoma SK-MEL-2
Procedure: (§2) The compounds listed in Table IV were prepared using the procedures outlined in the above Examples.

OVCAR-3 = assay: Cell proliferation assay, Ovarian Cancer OVCAR-3; type: cell-based; conditions: Homo sapiens, read-out: GI50 or IC50, Ovarian Cancer OVCAR-3
Procedure: as §2

MES-SA/Dx5 = assay: Cell proliferation assay, Uterine MES-SA/Dx5; type: cell-based; conditions: Homo sapiens, read-out: GI50 or IC50, Uterine MES-SA/Dx5
Procedure: as §2

UO-31 = assay: Cell proliferation assay, Renal Cancer UO-31; type: cell-based; conditions: Homo sapiens, read-out: GI50 or IC50, Renal Cancer UO-31
Procedure: as §2

PC-3 = assay: Cell proliferation assay, Prostate Cancer PC-3; type: cell-based; conditions: Homo sapiens, read-out: GI50 or IC50, Prostate Cancer PC-3
Procedure: as §2

MCF-7 [2] = assay: Cell proliferation assay (panel), Breast Cancer MCF-7; type: cell-based; conditions: Homo sapiens, MCF7; read-out: GI50 or IC50, Breast Cancer MCF-7
Procedure: as §2

NCI-ADR = assay: Cell proliferation assay, Breast Cancer NCI-ADR; type: cell-based; conditions: Homo sapiens, NCI/ADR-RES; read-out: GI50 or IC50, Breast Cancer NCI-ADR
Procedure: as §2

human Topo IIα = biological target: T1, human Topo IIα (Homo sapiens, UniProt P11388); assay: Topo IIα decatenation inhibition assay (kDNA, agarose gel); type: biochemical; conditions: sample gel, FIG. 2; kDNA substrate
T1 construct: purchased Topogen Inc. Columbus, Ohio
Excerpt: When present, high molecular weight kDNA has not migrated from the loading well.
The enzyme assays used for determining Topo IIα inhibition was either the ATP-dependent decatenation of high molecular weight kDNA (kinetoplast) as substrate or the relaxation of supercoiled pBR322 each incorporating human Topo IIα (Topogen Inc. Columbus, Ohio) and following literature protocols (Fortune, J. M. et al., J. Biol. Chem., 273(28), 17643-50 1998; Muller, M. T. et al., Biochemistry, 27(22), 8369-79, 1988). The 2.5 Kd mini-circle product derived from the catenated substrate is resolved on an agarose gel with ethidium bromide staining after electrophoresis. Likewise, the relaxed form of pBR322 is resolved from the faster moving supercoiled form during electrophoresis.

pBR322 plasmid = assay: Gel retardation assay (electrophoretic mobility shift); type: binding
Excerpt: (§3) Gel retardation assays were done on 320 and other biaryl/terphenyl acid compounds, to test for electrophoretic mobility shifts due to the presence of a substance that directly binds DNA.

MCF-7/ADR = assay: Cell proliferation assay, MDR line MCF-7/ADR; type: cell-based, human; conditions: 48 hrs exposure; less potent in MCF-7/ADR
Excerpt: (§4) The MCF-7 cell line, the MDR cell line, and the MCF-7/ADR cell line were used. Alamar Blue™ was used to quantitate cell viability.

NCI-H460 [3] = assay: NCI-H460 human xenograft study in nude mice; conditions: i.v., 320 25 mg/Kg days 1-5, etoposide 35 mg/Kg days 7, 10, 14; for anti-tumor activity with respect to final tumor volume: doxorubicin 5 mg/Kg days 7 and 14, day 28
Procedure: (§6) An acute toxicological study was performed for 320 prior to the xenograft study. Two groups (n=3) of female CD-1 mice were injected intraperitoneally (i.p.) with either 10 or 100 mg/Kg of 320 dissolved in 5% DMSO, 10% PEG400. […] A second MTD study was done by the intravascular (i.v.) route using 4 groups of CD-1 mice for the following: vehicle, 3, 10 and 30 mg/Kg injections which were to be given daily for days 1-5 and study duration of two weeks, at which point survivors would be euthanised.
All injections were by the i.v. route; groups were 5 NCR nu/nu mice. The cell line NCI-H460 was used to produce the tumors that appeared by day 7. […] All survivors to day 28 were euthanised at this time and tumor volumes measured.

[4] = biological target: TopoIIα-DNA covalent complex (Homo sapiens, UniProt P11388); assay: Topo IIα DNA covalent complex stabilization assay; type: biochemical; conditions: SDS trapping, proteinase K, FIG. 5
Excerpt: (§5) To determine if the compound 320 stabilizes the TopoIIα-DNA covalent complex, cleavage intermediates are trapped by the addition of SDS to the reaction (Wilson Byl, J. A., et al., Biochemistry, 40, 712-718, 2001). After proteinase K digestion to digest any covalently bound Topo, the products are electrophoresed and stained with EtBr. The appearance of an additional band that is a linear form of the 2.5 Kb minicircle product is indicative of a compound's ability to stabilize the covalent complex.

Topo I = biological target: T2, Topo I (Homo sapiens, UniProt P11387); assay: Topo I covalent complex stabilization test; type: biochemical; conditions: similar tests as for Topo IIα
T2 sequence (P11387 1-765): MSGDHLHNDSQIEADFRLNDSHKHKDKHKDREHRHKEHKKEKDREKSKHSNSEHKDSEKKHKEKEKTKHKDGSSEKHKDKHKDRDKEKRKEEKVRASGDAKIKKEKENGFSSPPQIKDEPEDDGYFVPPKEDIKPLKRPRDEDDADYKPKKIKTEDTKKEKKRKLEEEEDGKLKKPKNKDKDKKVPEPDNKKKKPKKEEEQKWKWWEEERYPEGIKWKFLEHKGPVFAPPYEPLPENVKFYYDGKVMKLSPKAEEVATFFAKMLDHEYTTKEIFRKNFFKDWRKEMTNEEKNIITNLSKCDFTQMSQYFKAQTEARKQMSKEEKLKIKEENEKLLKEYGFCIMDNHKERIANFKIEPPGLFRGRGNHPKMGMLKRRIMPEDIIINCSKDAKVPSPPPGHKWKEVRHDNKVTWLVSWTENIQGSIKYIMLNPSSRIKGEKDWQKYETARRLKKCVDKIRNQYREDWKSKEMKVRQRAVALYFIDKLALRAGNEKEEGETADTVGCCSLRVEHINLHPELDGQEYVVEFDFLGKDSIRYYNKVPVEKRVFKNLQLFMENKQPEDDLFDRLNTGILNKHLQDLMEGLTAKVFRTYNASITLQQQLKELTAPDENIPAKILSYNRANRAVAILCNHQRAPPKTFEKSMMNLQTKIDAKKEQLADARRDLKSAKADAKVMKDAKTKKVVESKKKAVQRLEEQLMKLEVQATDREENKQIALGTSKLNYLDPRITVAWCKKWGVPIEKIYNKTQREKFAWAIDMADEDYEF
Excerpt: as §5

MCF-7 [5] = assay: Cell proliferation assay, MCF-7; type: cell-based; conditions: Homo sapiens, MCF7; 48 hrs exposure, Alamar Blue, FIG. 6; no shift between MCF-7 and MCF-7/ADR; read-out: approximate IC50, cell proliferation
Procedure: as §4
The compounds listed in Table II were prepared using the procedures outlined in the above Examples.

[6] = Acute toxicological study, i.p.; type: in vivo; conditions: female CD-1 mice, n=3, seven days
Procedure: as §6

[7] = mouse, in vivo, iv
Procedure: as §6

calf thymus DNA = assay: DNA-intercalator displacement assay (EtBr displacement); type: binding; conditions: FIG. 4
Excerpt: The curve labeled “Hoechst” corresponds to Hoechst 33258. Controls are: 1) no EtBr (min. fluorescence) and 2) no compound (max. fluorescence).
as §3

T1 sequence (P11388 whole entry): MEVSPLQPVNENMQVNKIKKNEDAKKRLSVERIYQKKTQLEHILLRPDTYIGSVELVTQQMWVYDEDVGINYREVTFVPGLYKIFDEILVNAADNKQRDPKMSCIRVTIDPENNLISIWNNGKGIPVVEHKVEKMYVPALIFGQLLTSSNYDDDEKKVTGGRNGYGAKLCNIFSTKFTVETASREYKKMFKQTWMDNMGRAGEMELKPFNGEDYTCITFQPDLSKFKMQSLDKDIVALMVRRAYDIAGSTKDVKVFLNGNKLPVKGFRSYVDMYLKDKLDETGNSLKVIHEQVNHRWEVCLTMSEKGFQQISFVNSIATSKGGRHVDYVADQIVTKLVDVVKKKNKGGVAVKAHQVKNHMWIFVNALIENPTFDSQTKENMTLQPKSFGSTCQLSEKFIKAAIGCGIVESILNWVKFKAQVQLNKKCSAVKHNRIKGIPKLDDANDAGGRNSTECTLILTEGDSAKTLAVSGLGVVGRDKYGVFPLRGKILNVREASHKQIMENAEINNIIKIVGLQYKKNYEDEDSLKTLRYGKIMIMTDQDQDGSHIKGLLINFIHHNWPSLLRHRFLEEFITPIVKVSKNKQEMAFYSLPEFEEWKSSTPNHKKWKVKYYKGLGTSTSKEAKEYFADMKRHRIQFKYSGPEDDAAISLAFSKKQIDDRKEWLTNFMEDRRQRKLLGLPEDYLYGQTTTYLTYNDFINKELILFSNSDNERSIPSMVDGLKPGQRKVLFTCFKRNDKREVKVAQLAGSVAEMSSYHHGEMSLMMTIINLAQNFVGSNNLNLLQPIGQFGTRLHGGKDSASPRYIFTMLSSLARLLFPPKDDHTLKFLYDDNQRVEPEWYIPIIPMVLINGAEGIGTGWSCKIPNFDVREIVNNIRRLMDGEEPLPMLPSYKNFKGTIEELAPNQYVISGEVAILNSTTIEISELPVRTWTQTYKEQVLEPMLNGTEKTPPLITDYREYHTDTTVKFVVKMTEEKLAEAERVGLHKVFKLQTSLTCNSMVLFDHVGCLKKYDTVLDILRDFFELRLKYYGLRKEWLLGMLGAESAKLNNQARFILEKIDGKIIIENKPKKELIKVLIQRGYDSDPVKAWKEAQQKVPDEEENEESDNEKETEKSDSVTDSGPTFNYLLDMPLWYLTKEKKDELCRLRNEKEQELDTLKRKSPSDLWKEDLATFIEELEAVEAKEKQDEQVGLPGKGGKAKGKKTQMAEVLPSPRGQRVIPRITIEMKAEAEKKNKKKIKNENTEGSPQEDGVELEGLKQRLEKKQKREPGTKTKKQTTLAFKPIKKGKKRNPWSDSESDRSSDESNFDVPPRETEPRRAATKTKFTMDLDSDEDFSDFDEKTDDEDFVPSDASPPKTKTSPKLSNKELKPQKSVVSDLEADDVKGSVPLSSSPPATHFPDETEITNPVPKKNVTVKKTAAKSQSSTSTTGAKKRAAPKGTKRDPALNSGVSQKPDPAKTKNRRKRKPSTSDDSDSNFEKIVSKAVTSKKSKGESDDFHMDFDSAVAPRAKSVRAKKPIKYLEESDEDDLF
Chain of TopoIIα-DNA covalent complex (P11388 whole entry, one chain of several): as the sequence (P11388 whole entry) above

Structure (SMILES) | IC50 (HL-60) | IC50 (HL60-MX1 (MDR)) | IC50 (NCI-H460 [1]) | IC50 (H69-AR (MDR)) | IC50 (HCT-15) | IC50 (SF-268) | IC50 (SK-MEL-2) | IC50 (OVCAR-3) | IC50 (UO-31) | IC50 (PC-3) | IC50 (MCF-7 [2]) | IC50 (NCI-ADR) | IC50 (MES-SA/Dx5) | inhibition of Topo IIα decatenation (human Topo IIα) | shift in potency, resistant line MCF-7/ADR versus parent line MCF-7 (MCF-7/ADR) | anti-tumor activity with respect to final tumor volume (NCI-H460 [3]) | also measured
COc1cccc2c1C(=O)c1c(O)c3c(c(O)c1C2=O)C[C@@](O)(C(=O)CO)C[C@@H]3O[C@H]1C[C@H](N)[C@H](O)[C@H](C)O1 [doxorubicin, reference compound] | – | – | – | – | – | – | – | – | – | – | – | – | – | partial inhibition | 100 fold | least efficacy | mobility shift of pBR322 plasmid on gels (pBR322 plasmid): Mobility shifts were seen
O=C(NC1(C(=O)O)Cc2ccccc2C1)c1ccc(Cl)c(-c2ccc(-c3ccccc3)cc2)c1 [Compound 320, 2-[(6″-Chloro-[1,1′;4′,1″]terphenyl-3″-carbonyl)-amino]-indan-2-carboxylic acid] | – | – | – | – | – | – | – | – | – | – | – | – | – | complete inhibition | no shift in potency | some final growth inhibition | stabilization of the TopoIIα-DNA covalent complex (linear form of minicircle) [4]: does not stabilize the covalent complex; stabilization of the covalent complex in Topo I reactions (Topo I): no apparent stabilization of the covalent complex; IC50 (MCF-7 [5]): ~30 µM; survival and side effects, acute toxicity ([6]; 10 mg/Kg (low dose)): all the low dose mice survived with no visible side effects; survival, acute toxicity ([6]; 100 mg/Kg (high dose)): Two mice in the high dose group survived; survival, MTD study [7]: All other animals survived to the end of the study; survival, MTD study ([7]; 30 mg/kg): Two animals in the highest dose group survived with one animal dying after 3 injections; initial tumor growth delay (NCI-H460 [3]): no initial growth delay
CN1CCN(c2ccc3[nH]c(-c4ccc5[nH]c(-c6ccc(O)cc6)nc5c4)nc3c2)CC1 [Hoechst 33258] | – | – | – | – | – | – | – | – | – | – | – | – | – | – | – | – | IC50 of EtBr displacement (calf thymus DNA): low μM; displacement of EtBr (intercalator) from DNA (calf thymus DNA): clearly demonstrates displacement of EtBr
O=C(Nc1cnccn1)c1ccc(Cl)c(-c2ccc(-c3ccccc3)cc2)c1 [Compound 5, 6″-Chloro-[1,1′;4′,1″]terphenyl-3″-carboxylic acid pyrazin-2-ylamide] | ≤ 1 µM | ≤ 1 µM | ≤ 1 µM | ≤ 1 µM | ≤ 1 µM | ≤ 1 µM | 1 to 25 µM | ≤ 1 µM | ≤ 1 µM | ≤ 1 µM | ≤ 1 µM | – | ≤ 1 µM | – | – | – | –

Now from value to compound, other results behind:

IC50 (HL-60) | IC50 (HL60-MX1 (MDR)) | IC50 (NCI-H460 [1]) | IC50 (H69-AR (MDR)) | IC50 (HCT-15) | IC50 (SF-268) | IC50 (SK-MEL-2) | IC50 (OVCAR-3) | IC50 (UO-31) | IC50 (PC-3) | IC50 (MCF-7 [2]) | IC50 (NCI-ADR) | Structure (SMILES) | IC50 (MES-SA/Dx5) | inhibition of Topo IIα decatenation (human Topo IIα) | shift in potency, resistant line MCF-7/ADR versus parent line MCF-7 (MCF-7/ADR) | anti-tumor activity with respect to final tumor volume (NCI-H460 [3]) | also measured
1 to 25 µM | ≤ 1 µM | 1 to 25 µM | ≤ 1 µM | 1 to 25 µM | 1 to 25 µM | > 25 µM | > 25 µM | 1 to 25 µM | 1 to 25 µM | 1 to 25 µM | ≤ 1 µM | O=C(Nc1ccncn1)c1ccc(Cl)c(-c2ccc(-c3ccccc3)cc2)c1 [Compound 37, 6-Chloro-[1,1′;4′,1″]terphenyl-3-carboxylic acid pyrimidin-4-ylamide] | ≤ 1 µM | – | – | – | –
1 to 25 µM | 1 to 25 µM | 1 to 25 µM | ≤ 1 µM | 1 to 25 µM | 1 to 25 µM | 1 to 25 µM | 1 to 25 µM | 1 to 25 µM | 1 to 25 µM | 1 to 25 µM | ≤ 1 µM | O=C(NCC1CCCO1)c1ccc(Cl)c(-c2ccc(-c3ccccc3)cc2)c1 (stereo not shown) [Compound 58, 6-Chloro-[1,1′;4′,1″]terphenyl-3-carboxylic acid (tetrahydro-furan-2-ylmethyl)-amide] | ≤ 1 µM | – | – | – | –
